Experiments:
[1] = system: Neonatal Rat Ventricular Myocytes (NRVMs); experiment: Calcium transient (Tdecay) in single-pulse stimulated NRVMs, CTIC; type: cell-based; conditions: for Tdecay Mean / Tdecay Diff. (%) control vs compound / Tdecay Difference (ms) control vs compound: single pulse; for Tdecay Mean: average signal of three wells
From the text: (§1) A Calcium Transient Image Cytometer (CTIC) instrument and software have been developed at Vala Sciences to analyze calcium transient and other fluorescent read out in stimulated cardiomyocytes which is utilized in the Examples described herein. The instrument consists of a Nikon Eclipse™ microscope with a 20× objective, a Cohu 6612-3000 monochrome ½″ digital/analog progressive scan camera (which operates at 30 or 60 Hz), a Pentium™ 4-based PC, and a 200 gigabyte external “firewire” hard drive.
Platinum electrodes are mounted on a micromanipulator to stimulate cardiomyocytes cultured in a 96-well plate. The plate is placed, without a lid, on the stage of a robotic inverted microscope outfitted for fluorescence microscopy. The mechanical stage of the microscope moves to bring each well into position and the micromanipulator lowers to the pair of electrodes to bring them into contact with the culture medium of the well that is being analyzed. The voltage used to stimulate the cells is on the order of 20 to 30 volts, utilizing square wave pulses of 5 to 20 msec. A “polarity reverser” is included in the circuit to maintain electrode performance and effective stimulation of cardiac myocytes. FIG. 3 describes the prototype setting. After positioned on the well, the electrodes move to the “down” position, the instrument autofocuses on cells nuclei (blue channel), stimulates the cells (single stimulus or at 1 to 3 Hz for 3 to 10 seconds) and acquires the fluo-4 channel (green channel). Subsequently, the electrodes move to the “up” position and the instrument moves to another well, repeating the entire process. The time required to sample each well will range from 20 to 30 seconds, depending on the number of frames that are collected and the rate of stimulation.
The instrument is incorporated in a 37° C. chamber with CO2 and O2 percentage controllers, allowing the execution of experiment in approximate physiological conditions. The calcium analysis software, developed at Vala Sciences as a plug-in for Vala's CyteSeer High Content Analysis™ software, converts the fluo-4 and Hoechst 33342 fluorescence signals in a binary mask, to distinguish portions of the images corresponding to single cells. Then, comparing the images acquired during the stimulation, the software reports the calcium variation for the well or for every single cell and the average value for the well. Traces can be filtered to remove low responders or kinetics with specific characteristics.
A number of kinetic parameters can be automatically derived either for the nuclear, cytoplasm or the whole cell compartments: The Full Width at Half Maximum (FWHM), which is the time required for progression from the 50% point on the upstroke to 50% point on the downstroke, TRise, which is the time from 50% point to 100% on the upstroke, and the TDecay, which is the time period from 100% point to 50% point on the decay phase. Other values can be measured, including the time from 75% to 25% in the downstroke (T75-25) and the value at a particular time. Values are measured for single cells in the well and as average of the well.
The CTIC and calcium recording have been validated also for toxicity-related analysis. In one set of experiments, NRVMs are treated with either sparfloxacin or cisapride. The first one is a fluoroquinolone antibiotic no longer available in the U.S., known to induce QT interval prolongation at high dosage. The second one is a serotonin 5-HT4 receptor agonist, used to cure people with gastro esophageal reflux disease. […] This is a clear hallmark of compounds that predispose to arrhythmia and torsades de pointes.
Tdecay is indicated for the average signal of three control wells and three compound treated wells. The mean, standard deviation (SD) and percent error is calculated for each group. The difference between the control and the compound groups is also indicated.
FIGS. 5A and 5B show calcium transient in drug treated NRVMs. […]

[2] = system: Neonatal Rat Ventricular Myocytes (NRVMs); type: cell-based
From the text: as §1
Platinum electrodes are mounted on a micromanipulator to stimulate cardiomyocytes cultured in a 96-well plate. The plate is placed, without a lid, on the stage of a robotic inverted microscope outfitted for fluorescence microscopy. The mechanical stage of the microscope moves to bring each well into position and the micromanipulator lowers to the pair of electrodes to bring them into contact with the culture medium of the well that is being analyzed. […]
The instrument is incorporated in a 37° C. chamber with CO2 and O2 percentage controllers, allowing the execution of experiment in approximate physiological conditions. The calcium analysis software, developed at Vala Sciences as a plug-in for Vala's CyteSeer High Content Analysis™ software, converts the fluo-4 and Hoechst 33342 fluorescence signals in a binary mask, to distinguish portions of the images corresponding to single cells. […]

Substance | Early after depolarization (EAD) ([1]; 1 μM) | Effect on Tdecay ([1]; 1 μM) | Tdecay Mean ([1]; 1 μM in recording buffer) [ms] | Tdecay Diff. (%) control vs compound ([1]; 1 μM) | Tdecay Difference (ms) control vs compound ([1]; 1 μM) | Calcium flux response to continuous stimulation [2] | Effect on Tdecay ([1]; 100 μM during the stimulation) | Tdecay Mean ([1]; 100 μM in recording buffer) [ms] | Tdecay Diff. (%) control vs compound ([1]; 100 μM) | Tdecay Difference (ms) control vs compound ([1]; 100 μM)
Cisapride | causes early after depolarization (EAD) | induces an increase in Tdecay | 2145 | +129% | +1210 ms |  |  |  |  | 
Sparfloxacin |  |  |  |  |  | irregular calcium flux | clearly doubles the Tdecay | 1969 | +106% | +1012 ms

— patent US10001470B2, “Method, system and composition for optically inducing cardiomyocyte contraction” (Sanford-Burnham Medical Research Institute, priority 2009, dated 2018)
